Measurements: patent publication US8470878B2, “Heterocyclic sulfonamide derivatives” (Novartis AG, priority 2011, dated 2013)

Legend:
BRAF-MEK-ERK cascade = biological target: T1, BRAF-MEK-ERK cascade (Homo sapiens, UniProt Q02750); assay: BRAF-MEK-ERK enzymatic cascade assay (TR-FRET); assay type: biochemical; conditions: mean±SEM, n=3; 10 point dose response, 45 minutes pre-incubation
T1 construct: human full length MEK1 kinase (Cat No. 14-706); purchased Upstate 14-557 (BRAF V599E); 14-706 (MEK1); 14-536 (ERK2)
Text: A BRAF-MEK-ERK cascade assay is used to evaluate the effects of these compounds as inhibitors of the MAP kinase pathway. An enzymatic cascade assay is set up using recombinant human activated BRAF (V599E) kinase (Cat No. 14-557), human full length MEK1 kinase (Cat No. 14-706) and human full length active MAP Kinase 2/ERK2 (Cat No. 14-536) enzymes procured from Upstate. TR-FRET (Time resolved fluorescence resonance energy transfer) detection technology is used for the read out. […] The kinase reaction is stopped after 90 minutes with 10 mM EDTA and Lance detection mix (2 nM Eu-labeled phospho-serine/threonine antibody (Cat. No. AD0176-Perkin Elmer), 20 nM SA-APC (Cat No. CR130-100-Perkin Elmer) is added. The TR-FRET signal (Excitation at 340 nm, Emission at 615 nm and 665 nm) is read with 50 μs delay time on a Victor3 V fluorimeter. The data is calculated using the ratio of readings at 665 nm to 615 nm. The final concentration of DMSO is 2.5% in the assay. Compounds are screened at 10 μM concentration with pre-incubation of the enzymes in the presence of test compound for 45 minutes.
Each individual IC50 is determined using a 10 point dose response curve generated by GraphPad Prism software Version 4 (San Diego, Calif., USA) using non linear regression curve fit for sigmoidal dose response (variable slope).
These assays described above are fully detailed in Han, Shulin, et. al., Bioorganic & Medicinal Chemistry Letters (2005) 15, 5467-5473, and in Yeh, et. al., Clin Cancer Res (2007) 13 (5), 1576-1583.

[1] = Pharmacokinetics in athymic nude rats; assay type: in vivo; conditions: rat; for AUC / clearance / half-life / Vd / bioavailability / Cmax: athymic nude, plasma; for bioavailability: p.o. (3 mg/kg) vs i.v. (0.5 mg/kg), oral bioavailability; for PK-parameters compared to Example 1: one-way analysis of variance
Protocol: Pharmacokinetics in Athymic Nude Rats
For pharmacokinetics studies, the following parameters were calculated by non-compartmental regression analysis using Winnonlin 5.0 software (Pharsight, Mountain View, Calif., USA): half life in plasma (t1/2term); plasma clearance (CL); plasma maximum concentration (Cmax); plasma area-under-the-concentration-time-curve (AUC); and percent oral bioavailability (F %).

[2] = test system: DUSP6 expression in A375 tumors; assay: A375 B-RafV600E human melanoma model in rat, PK-PD experiment (DUSP6 expression in tumor, real time quantitative PCR); assay type: in vivo; conditions: A375 tumor bearing rats, single oral dose, at 12 h and 24 h post dosing; two-way analysis of variance, p=0.003 and p=0.006
Protocol: A375 B-RafV600E Human Melanoma Model in Rat—PK-PD Experiment:
A375 cells were thawed using a 37° C. water bath. Cells were transferred to a tube containing 10 mls of warm DMEM medium. The tube was centrifuged for 5 minutes at 1200 rpm and the supernatant was discarded. The cell pellet was re-suspended and transferred to a 75 cm^2 tissue culture flask containing 15 mls of medium and cultured at 37° C. in a 5% CO2 incubator.
On the day of the cells implantation, cells were harvested (about 85% confluent), and re-suspended in cold medium containing 4 mg/ml of matrigel. This cell suspension was injected, subcutaneously, to athymic-nude pre-irradiated (500 rads) rats. Ten million cells (injection volume, 200 μL) were injected, subcutaneously, into the right flank region of the rats 24 hours after irradiation. Tumor bearing rats were randomized when the tumor volume reached approximately 500 mm^3 after about 15 to 20 days. Three rats were used for each time point.
Rats were treated orally with a single dose of 10, 30 and 60 mg/kg p.o. of Example 1A and 30 mg/kg of Example 1B. […] The mRNA expression levels of two direct target genes of MEK substrate P-Erk (DUSP6 and SPRY4) and an indirect target (BMF) can be measured. […] The tumor samples were pulverized, extracted and studied for expression of the […] DUSP6 using a real time quantitative PCR.

Row | IC50 (BRAF-MEK-ERK cascade) | AUC ([1]; iv, i.v. (0.5 mg/kg)) | clearance ([1]; iv, i.v. (0.5 mg/kg)) | half-life ([1]; iv, i.v. (0.5 mg/kg)) | Vd ([1]; iv, i.v. (0.5 mg/kg)) | bioavailability [1] | AUC ([1]; po, p.o. (3 mg/kg)) | Cmax ([1]; po, p.o. (3 mg/kg)) | Structure (SMILES) | lowering levels of DUSP-6 in tumor [2] | PK-parameters compared to Example 1 [1]
1 | 2.1 ± 0.58 nM | 70 ± 9 µg·h/mL | 7.6 mL/h/kg | 15.6 ± 1.7 h | 0.17 ± 0.006 L/kg | 87% | 365 ± 45 µg·h/mL | 9800 ± 700 ng/mL | O=S(=O)(Nc1c(Nc2ccc(I)cc2F)c(F)c(F)c2ccoc12)C1(CC(O)CO)CC1 (racemic) [Example 1, 1-(2,3-Dihydroxy-propyl)-cyclopropanesulfonic acid [4,5-difluoro-6-(2-fluoro-4-iodo-phenylamino)-benzofuran-7-yl]amide] | – | –
2 | 2 ± 0.25 nM | 126 ± 3 µg·h/mL | 4 mL/h/kg | 19.9 ± 0.8 h | 0.11 ± 0.006 L/kg | 132% | 994 ± 30 µg·h/mL | 25600 ± 700 ng/mL | O=S(=O)(Nc1c(Nc2ccc(I)cc2F)c(F)c(F)c2ccoc12)C1(C[C@H](O)CO)CC1 [Example 1A, (S)—N-(4,5-difluoro-6-((2-fluoro-4-iodophenyl)amino)benzofuran-7-yl)-1-(2,3-dihydroxypropyl)cyclopropane-1-sulfonamide] | significantly more effective than Example-1B | improved PK-parameters compared to Example 1
3 | 1.6 ± 0.1 nM | 100 ± 14 µg·h/mL | 5.2 mL/h/kg | 17.1 ± 1.8 h | 0.125 ± 0.006 L/kg | 126% | 752 ± 84 µg·h/mL | 25200 ± 2700 ng/mL | O=S(=O)(Nc1c(Nc2ccc(I)cc2F)c(F)c(F)c2ccoc12)C1(C[C@@H](O)CO)CC1 [Example 1B, (R)—N-(4,5-difluoro-6-((2-fluoro-4-iodophenyl)amino)benzofuran-7-yl)-1-(2,3-dihydroxypropyl)cyclopropane-1-sulfonamide] | – | improved PK-parameters compared to Example 1
